# From patent US9938335B2, “Glucagon and GLP-1 co-agonist compounds” (Eli Lilly and Company, priority 2015, dated 2018)
# Marks after values point to notes of the source that are not given here.
# Tests used:
# DIO mice (C57BL/6) = assay: Oral Glucose Tolerance Test (OGTT) in DIO mice; format: in vivo, mouse; settings: for Glucose AUC (% of vehicle): male DIO mice, OGTT (2 g/kg) 16 hours post injection
# Experimental: Diet-induced obese (DIO) mouse model is a model of insulin resistance. Five to six months old male DIO mice (C57BL/6) from Taconic Biosciences are used in this study. Animals are individually housed in a temperature-controlled (24° C.) facility with a 12 hour light/dark cycle (lights on 06:00), and free access to food and water. The acclimation period to the facility is two weeks. The day before the study, animals are randomized into groups based on their body weight. That same afternoon, animals are fasted in clean cages and dosed with vehicle (40 mM Tris-HCl, pH 8.0) or test articles by subcutaneous injection. The following morning, 16 hours post the peptide injection, fasting body weights are obtained to calculate glucose doses. Blood samples are taken to measure time zero glucose. Animals are then given an oral gavage of glucose (2 g/kg). Two glucose readings via glucometers were obtained at 15, 30, 60 and 120 minutes post oral glucose. The average of two glucose readings is reported at each time point and an area under the curve is calculated. Statistics were analyzed using ANOVA with Dunnett's comparison by JMP 6; significance is denoted at p≤0.05 vs. vehicle.
# [1] = test system: STZ-treated DIO mice (C57BL/6); assay: OGTT in Streptozotocin (STZ)-treated DIO mice; format: in vivo, mouse; settings: for Glucose AUC (% of vehicle): male STZ mice, OGTT (2 g/kg) 16 hours post injection
# Experimental: STZ-treated mouse model is a model of early diabetes. Five to six months old male DIO mice (C57BL/6) from Taconic Biosciences are used in this study. Animals are individually housed in a temperature-controlled (24° C.) facility with a 12 hour light/dark cycle (lights on 6:00), and free access to food and water. After two weeks acclimation to the facility, mice are injected intraperitoneally with 50 mg/kg of STZ on Tuesday and Friday. Two weeks post the injection, animals with glucose levels between 180-300 mg/dL at 09:00 are selected for the OGTT study. The day before the study, animals are randomized into groups based on body weight and their glucose levels. Animals are treated with vehicle or testing articles by subcutaneous injection just prior to food removal overnight (16:00). The following morning at 08:00, 16 hours post compound injection, blood samples are taken to measure time zero glucose. Animals are given an oral dose of glucose of 2 g/kg. Glucose is measured 15, 30, 60, and 120 minutes post the oral glucose challenge. Statistics are analyzed using ANOVA with Dunnett's comparison by JMP 6. Significance is denoted at p≤0.05 vs. vehicle.
structure (smiles),measurement,setting,value
CC(C)C[C@H](NC(=O)[C@H](CC(C)C)NC(=O)[C@H](Cc1c[nH]c2ccccc12)NC(=O)[C@H](CCC(=O)O)NC(=O)[C@@H](NC(=O)[C@H](Cc1ccccc1)NC(=O)[C@H](CCC(=O)O)NC(=O)[C@H](CCCCNC(=O)COCCOCCNC(=O)COCCOCCNC(=O)CC[C@H](NC(=O)CCCCCCCCCCCCCCCCCCC(=O)O)C(=O)O)NC(=O)[C@H](C)NC(=O)[C@H](CCCCN)NC(=O)[C@H](CCCCN)NC(=O)[C@H](CCC(=O)O)NC(=O)[C@H](CC(=O)O)NC(=O)[C@H](CC(C)C)NC(=O)[C@H](Cc1ccc(O)cc1)NC(=O)[C@H](CCCCN)NC(=O)[C@H](CO)NC(=O)[C@H](Cc1ccc(O)cc1)NC(=O)[C@H](CC(=O)O)NC(=O)[C@H](CO)NC(=O)[C@@H](NC(=O)[C@H](Cc1ccccc1)NC(=O)[C@@H](NC(=O)CNC(=O)[C@H](CCC(N)=O)NC(=O)C(C)(C)NC(=O)[C@@H](N)Cc1c[nH]cn1)[C@@H](C)O)[C@@H](C)O)C(C)C)C(=O)N[C@@H](CCC(=O)O)C(=O)NCC(=O)NCC(=O)N1CCC[C@H]1C(=O)N[C@@H](CO)C(=O)N[C@@H](CO)C(=O)NCC(N)=O [Compound 2],Glucose AUC (% of vehicle),DIO mice (C57BL/6); 1 nmol/kg sc,76* % of vehicle
same,Glucose AUC (% of vehicle),DIO mice (C57BL/6); 3 nmol/kg sc,50* % of vehicle
same,Glucose AUC (% of vehicle),DIO mice (C57BL/6); 10 nmol/kg sc,39* % of vehicle
same,glucose during the tolerance test,"DIO mice (C57BL/6); male DIO mice, 1, 3 and 10 nmol/kg",dose-dependent decrease in glucose
same,Glucose AUC (% of vehicle),[1]; 1 nmol/kg sc,70* % of vehicle
same,Glucose AUC (% of vehicle),[1]; 3 nmol/kg sc,48* % of vehicle
same,Glucose AUC (% of vehicle),[1]; 10 nmol/kg sc,35* % of vehicle
same,glucose excursion during the tolerance test,"[1]; male STZ mice, 1, 3 and 10 nmol/kg",dose dependent decrease in glucose excursion
